Experimental data taken from PubChem BioAssay AID330 (DTP/NCI, 2004).
Where “and” joins values, the source holds several entries; their conditions need not be identical. Identical values can stand only once. Inconclusive results and toxic doses are left out. Rule for the calls: active = survival T/C of 150% or more; inactive = T/C below 125% in these data.

Tested on: P388 leukemia ip, CD2F1 mice, survival T/C
Test: NCI In Vivo Anticancer Drug Screen. Data for tumor model P388 Leukemia (intraperitoneal) in CD2F1 (CDF1) mice
Conditions: endpoint: median survival time, higher = longer survival
Procedure, shortened: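 Mice carrying the transplanted tumor received test compound or vehicle. Survival was recorded in each group, and the value is the treated-group measurement divided by that of the vehicle-treated control group.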

[1] = dose: 60.0 mg/kg/injection, schedule: Q01DX005 (ip), vehicle: saline with Tween-80
[2] = dose: 120.0 mg/kg/injection, schedule: Q01DX005 (ip), vehicle: saline with Tween-80
[3] = dose: 240.0 mg/kg/injection, schedule: Q01DX005 (ip), vehicle: saline with Tween-80

Measured: T/C

COc1cccc(C(Cc2ccccc2)Nc2ccccc2)c1OC (stereo not given)
inactive: dose: 3.0 mg/kg/injection, schedule: Q01DX005 (ip), vehicle: Klucel (hydroxypropylcellulose) (HPC) 94 % of control | dose: 6.0 mg/kg/injection, schedule: Q01DX005 (ip), vehicle: Klucel (hydroxypropylcellulose) (HPC) 93 % of control | dose: 12.0 mg/kg/injection, schedule: Q01DX005 (ip), vehicle: Klucel (hydroxypropylcellulose) (HPC) 93 % of control | dose: 50.0 mg/kg/injection, schedule: Q01DX005 (ip), vehicle: Klucel (hydroxypropylcellulose) (HPC) 92 % of control | dose: 200.0 mg/kg/injection, schedule: Q01DX005 (ip), vehicle: Klucel (hydroxypropylcellulose) (HPC) 88 % of control

Cc1[nH]c2cc3c(cc2c(=O)c1Cc1c(C)[nH]c2cc4c(cc2c1=O)CCCC4)CCCC3
inactive: dose: 100.0 mg/kg/injection, schedule: Q01DX001 (ip), vehicle: Klucel (hydroxypropylcellulose) (HPC) 87 % of control | dose: 200.0 mg/kg/injection, schedule: Q01DX001 (ip), vehicle: Klucel (hydroxypropylcellulose) (HPC) 88 % of control | dose: 400.0 mg/kg/injection, schedule: Q01DX001 (ip), vehicle: Klucel (hydroxypropylcellulose) (HPC) 87 % of control

C=CC(C)n1[nH]c(=O)n(-c2ccc(O)c([N+](=O)[O-])c2)c1=O (stereo not given)
inactive: [1] 100 % of control | [2] 98 % of control | [3] 94 % of control

O=C(NC1C=Nc2ccc(Cl)cc2NC1=O)c1ccc(Cl)cc1 (stereo not given)
inactive: dose: 60.0 mg/kg/injection, schedule: Q01DX005 (ip), vehicle: Klucel (hydroxypropylcellulose) (HPC) 91 % of control | dose: 120.0 mg/kg/injection, schedule: Q01DX005 (ip), vehicle: Klucel (hydroxypropylcellulose) (HPC) 91 % of control | dose: 240.0 mg/kg/injection, schedule: Q01DX005 (ip), vehicle: Klucel (hydroxypropylcellulose) (HPC) 93 % of control

COc1ccc(OC)c(C(=O)C=C(C(F)(F)F)C(F)(F)F)c1
inactive: dose: 25.0 mg/kg/injection, schedule: Q01DX009 (ip), vehicle: other 120 % of control | dose: 50.0 mg/kg/injection, schedule: Q04DX003 (ip), vehicle: other 113 % of control | dose: 66.0 mg/kg/injection, schedule: Q04DX003 (ip), vehicle: other 109 % of control | dose: 100.0 mg/kg/injection, schedule: Q01DX009 (ip), vehicle: other 95 % of control | dose: 100.0 mg/kg/injection, schedule: Q04DX003 (ip), vehicle: other 109 % of control | dose: 150.0 mg/kg/injection, schedule: Q04DX003 (ip), vehicle: other 113 % of control

C[Si](C)(C)n1nnn(-c2ccccc2)c1=O
inactive: dose: 50.0 mg/kg/injection, schedule: Q01DX009 (ip), vehicle: saline with Tween-80 99 % of control and 116 % of control | dose: 100.0 mg/kg/injection, schedule: Q01DX009 (ip), vehicle: saline with Tween-80 112 % of control | dose: 200.0 mg/kg/injection, schedule: Q01DX009 (ip), vehicle: saline with Tween-80 106 % of control

COC(=O)c1cc(NC(=O)O/N=C/c2cccnc2)cc(C(=O)OC)c1
inactive: dose: 50.0 mg/kg/injection, schedule: Q01DX009 (ip), vehicle: saline 103 % of control | dose: 100.0 mg/kg/injection, schedule: Q01DX009 (ip), vehicle: saline 91 % of control

CC1CN1C1=C(Cl)C(=O)C(N2CC2C)=C(Cl)C1=O (stereo not given)
inactive: dose: 3.12 mg/kg/injection, schedule: Q01DX009 (ip), vehicle: Klucel (hydroxypropylcellulose) (HPC) 115 % of control

Cn1cnc2cc(N3CCCCC3)c(N)cc2c1=O
inactive: dose: 100.0 mg/kg/injection, schedule: Q04DX003 (ip), vehicle: Klucel (hydroxypropylcellulose) (HPC) 107 % of control | dose: 200.0 mg/kg/injection, schedule: Q04DX003 (ip), vehicle: Klucel (hydroxypropylcellulose) (HPC) 99 % of control | dose: 400.0 mg/kg/injection, schedule: Q04DX003 (ip), vehicle: Klucel (hydroxypropylcellulose) (HPC) 102 % of control

CC(C)c1nc(C=O)c(C=O)n1Cc1ccccc1
inactive: [1] 97 % of control | [2] 92 % of control | [3] 97 % of control

CC1(C)OC(c2ccccc2)=Nc2ccccc21
inactive: dose: 100.0 mg/kg/injection, schedule: Q04DX002 (ip), vehicle: saline 104 % of control | dose: 200.0 mg/kg/injection, schedule: Q04DX002 (ip), vehicle: saline 103 % of control | dose: 400.0 mg/kg/injection, schedule: Q04DX002 (ip), vehicle: saline 99 % of control

CCCCCCCCCCCCS(=O)CC(C)O (stereo not given)
inactive: dose: 25.0 mg/kg/injection, schedule: Q01DX009 (ip), vehicle: saline + Tween-80 + alcohol 99 % of control and 101 % of control | dose: 50.0 mg/kg/injection, schedule: Q01DX009 (ip), vehicle: saline + Tween-80 + alcohol 95 % of control and 97 % of control | dose: 100.0 mg/kg/injection, schedule: Q01DX009 (ip), vehicle: saline + Tween-80 + alcohol 92 % of control and 95 % of control | dose: 200.0 mg/kg/injection, schedule: Q01DX009 (ip), vehicle: saline + Tween-80 + alcohol 99 % of control and 105 % of control | dose: 400.0 mg/kg/injection, schedule: Q01DX009 (ip), vehicle: saline + Tween-80 + alcohol 99 % of control and 107 % of control
